PMC3608651, “A Broad Profile of Co-Dominant Epitopes Shapes the Peripheral Mycobacterium tuberculosis Specific CD8+ T-Cell Immune Response in South African Patients with Active Tuberculosis” (PLoS ONE, 2013)
Like-named read-outs stand apart in the source and are kept apart here. Marks after values point to notes of the source that are not given here.

Key:
HLA-A*30:02 [1] = biological target: T1, HLA-A*30:02 (Homo sapiens, UniProt P04439, D101N/D140H/D185E/E176R/F33S/G80R/H175R/K168Q/Q94H/R138E/R41S/V100E); type: binding
HLA-A*30:02 [2] = biological target: T1, HLA-A*30:02; type: binding; conditions: time points 0-8 h
HLA-A*30:01 [3] = biological target: T2, HLA-A*30:01 (Homo sapiens, UniProt P04439, D140H/D185E/E176W/F33S/G80R/H175R/K168Q/R138E/R41S); type: binding; conditions: percent relative the binding of positive control peptide […]; duplicated experiments; positive binder >40%
HLA-B*58:01 = HLA-B*58:01 (Homo sapiens, UniProt P01889, A329T/C349S/D201E/D98Y/E176V/E187L/E204Q/E69T/G107R/I218V/I90N/K202T/L105A/L119I/N104I/N87E/Q89R/Q94S/R106L/R155S/R180L/R86G/S101N/S121R/S35A/S48A/T118I/V127L/V306I/V36M/Y140S/Y91M); type: binding; conditions: percent relative the binding of positive control peptide […]; duplicated experiments; positive binder >40%
HLA-B*07:02 = HLA-B*07:02 (Homo sapiens, UniProt P01889); type: binding; conditions: percent relative the binding of positive control peptide […]; duplicated experiments; positive binder >40%
HLA-A*02:01 [4] = biological target: T3, HLA-A*02:01 (Homo sapiens, UniProt P04439, D140Y/D185E/D98H/E176V/E277Q/G131W/G231S/I119V/I121R/I166T/I218V/L300P/L318F/N151K/N90K/P208A/P217A/Q86G/Q94H/R138H/R169H/T345S); type: binding; conditions: percent relative the binding of positive control peptide […]; plate-bound monomer 0.5 µg/ml; duplicated experiments; positive binder >40%
HLA-A*24:02 [5] = biological target: T4, HLA-A*24:02 (Homo sapiens, UniProt P04439, D101N/D140Y/D185E/E176V/E190D/F33S/G103R/G107R/I119L/I121M/I306V/K335N/L105A/L180Q/L300P/N151K/N90K/Q86E/Q94H/R106L/R138H/R89G/T104I/T345S/V100E/W191G/Y123F); type: binding; conditions: percent relative the binding of positive control peptide […]; duplicated experiments; positive binder >40%
HLA-A*68:01 [6] = biological target: T5, HLA-A*68:01 (Homo sapiens, UniProt P04439, A269V/D185E/E176V/E277Q/E87N/F33Y/G231S/I121M/I166T/I218V/L180W/L300P/L318F/N151K/P208A/P217A/Q86R/R169H/T345S); type: binding; conditions: duplicated experiments, positive binder >40%
HLA-A*30:01 [7] = biological target: T2, HLA-A*30:01; test: affinity assay (ED50); type: binding; conditions: peptide titrated 10−4 to 10−9 M
HLA-A*30:01 [8] = biological target: T2, HLA-A*30:01; test: off-rate assay (t1/2); type: binding; conditions: time points 0-8 h
HLA-A*30:02 [9] = biological target: T1, HLA-A*30:02; type: binding; conditions: percent relative the binding of positive control peptide […]; duplicated experiments; positive binder >40%
HLA-C*07:01 = HLA-C*07:01 (Homo sapiens, UniProt P10321, K90N/S123Y); type: binding; conditions: percent relative the binding of positive control peptide […]; duplicated experiments; positive binder >40%
HLA-A*30:02 [10] = biological target: T1, HLA-A*30:02; conditions: percent relative the binding of a positive control peptide, cited from earlier work
HLA-A*24:02 [11] = biological target: T4, HLA-A*24:02; conditions: cited from earlier work
HLA-A*24:02 [12] = biological target: T4, HLA-A*24:02; conditions: percent relative the binding of a positive control peptide, cited from earlier work
HLA-A*30:02 [13] = biological target: T1, HLA-A*30:02; conditions: cited from earlier work
HLA-A*24:02 [14] = biological target: T4, HLA-A*24:02; conditions: cited from earlier work; remark: listed apart in the source
HLA-A*30:02 [15] = biological target: T1, HLA-A*30:02; conditions: cited from earlier work; remark: listed apart in the source
HLA-A*02:01 [16] = biological target: T3, HLA-A*02:01; conditions: percent relative the binding of a positive control peptide, cited from earlier work
HLA-A*02:01 [17] = biological target: T3, HLA-A*02:01; conditions: cited from earlier work
HLA-A*02:01 [18] = biological target: T3, HLA-A*02:01; conditions: cited from earlier work; remark: listed apart in the source
HLA-A*68:01 [19] = biological target: T5, HLA-A*68:01; type: binding
HLA-A*68:01 [20] = biological target: T5, HLA-A*68:01; type: binding; conditions: time points 0-8 h
[21] = percent relative the binding of positive control peptide […]

KLVANNT RL
Aff A*30:02 (ED50) (HLA-A*30:02 [1]): 1E -07 M
O-rate A*30:02 (t1/2) (HLA-A*30:02 [2]): 2.2 h
Bind A*30:01 (HLA-A*30:01 [3]): 60%
Bind B*58:01 (HLA-B*58:01): 40%
Bind B*07:02 (HLA-B*07:02): 43%
Bind A*02:01 (HLA-A*02:01 [4]): 81%
Bind A*24:02 (HLA-A*24:02 [5]): 73%
Bind A*68:01 (HLA-A*68:01 [6]; [21]): 18%
Aff A*30:01 (ED50) (HLA-A*30:01 [7]): 2E -08 M
O-rate A*30:01 (t1/2) (HLA-A*30:01 [8]): 0.7 h
Bind A*30:02 (HLA-A*30:02 [9]): 167%
Bind C*07:01 (HLA-C*07:01): 13%

MYNYPAMLG [Rv0288_5–13wt]
Bind A*30:02 (HLA-A*30:02 [10]; wild-type epitopes marked **): 45** percent
O-rate A*24:02 (t1/2) (HLA-A*24:02 [11]; wild-type epitopes marked *): 1.4 h
Bind A*24:02 (HLA-A*24:02 [12]; wild-type epitopes marked *): 72* percent
O-rate A*30:02 (t1/2) (HLA-A*30:02 [13]; wild-type epitopes marked **): 0.6 h
Aff A*24:02 (ED50) (HLA-A*24:02 [14]; wild-type epitopes marked *): 0.6 µM
Aff A*30:02 (ED50) (HLA-A*30:02 [15]; wild-type epitopes marked **): 7 µM

AMLGHAGDM [Rv0288_10–18wt]
Bind A*30:02 (HLA-A*30:02 [10]; wild-type epitopes marked **): 97** percent
Bind A*02:01 (HLA-A*02:01 [16]; wild-type epitopes marked *): 46* percent
Aff A*02:01 (ED50) (HLA-A*02:01 [17]; wild-type epitopes marked *): 6e-06 M
O-rate A*24:02 (t1/2) (HLA-A*24:02 [11]; wild-type epitopes marked *): 3.1 h
Bind A*24:02 (HLA-A*24:02 [12]; wild-type epitopes marked *): 25* percent
O-rate A*30:02 (t1/2) (HLA-A*30:02 [13]; wild-type epitopes marked **): 1.2 h
O-rate A*02:01 (t1/2) (HLA-A*02:01 [18]; wild-type epitopes marked *): 1.7 h
Aff A*24:02 (ED50) (HLA-A*24:02 [14]; wild-type epitopes marked *): 100 µM
Aff A*30:02 (ED50) (HLA-A*30:02 [15]; wild-type epitopes marked **): 0.05 µM

HAMSSTHEA [Rv0288_70–78]
Bind A*30:02 (HLA-A*30:02 [10]; […]): 88** percent
Bind A*02:01 (HLA-A*02:01 [16]; […]): 43* percent
Aff A*02:01 (ED50) (HLA-A*02:01 [17]): 6e-06 M
Bind B*58:01 (HLA-B*58:01): 16%
Aff A*68:01 (ED50) (HLA-A*68:01 [19]): 6e-06 M
O-rate A*68:01 (t1/2) (HLA-A*68:01 [20]): 0.5 h
Bind A*68:01 (HLA-A*68:01 [6]; [21]): 77%
O-rate A*30:02 (t1/2) (HLA-A*30:02 [13]): 0.6 h
O-rate A*02:01 (t1/2) (HLA-A*02:01 [18]): 2.5 h
Aff A*30:02 (ED50) (HLA-A*30:02 [15]): 0.3 µM
Bind C*07:01 (HLA-C*07:01): 6%

NFVRSSNLK
Bind A*30:01 (HLA-A*30:01 [3]): 101%
Bind B*58:01 (HLA-B*58:01): 10%
Bind B*07:02 (HLA-B*07:02): 0%
Aff A*68:01 (ED50) (HLA-A*68:01 [19]): 3E -06 M
Bind A*02:01 (HLA-A*02:01 [4]): 3%
Bind A*24:02 (HLA-A*24:02 [5]): 0%
O-rate A*68:01 (t1/2) (HLA-A*68:01 [20]): 0.2 h
Bind A*68:01 (HLA-A*68:01 [6]; [21]): 84%
Aff A*30:01 (ED50) (HLA-A*30:01 [7]): 9E -07 M
O-rate A*30:01 (t1/2) (HLA-A*30:01 [8]): 0.4 h
Bind A*30:02 (HLA-A*30:02 [9]): 0%
Bind C*07:01 (HLA-C*07:01): 0%

DLVRAYHAM [Rv0288_64–72wt]
O-rate A*24:02 (t1/2) (HLA-A*24:02 [11]; wild-type epitopes marked *): 2.9 h
Aff A*68:01 (ED50) (HLA-A*68:01 [19]; peptide titrated 10−4 to 10−9 M): 0.0004 M
O-rate A*68:01 (t1/2) (HLA-A*68:01 [20]): 3.3 h
Bind A*68:01 (HLA-A*68:01 [6]; percent relative the binding of positive control peptide KTGGPIYKR): 34%
Bind A*24:02 (HLA-A*24:02 [12]; wild-type epitopes marked *): 31* percent
Aff A*24:02 (ED50) (HLA-A*24:02 [14]; wild-type epitopes marked *): 2 µM

GYAGTLQSL [Rv0288_20–28wt]
O-rate A*24:02 (t1/2) (HLA-A*24:02 [11]): 3.7 h
Bind A*24:02 (HLA-A*24:02 [12]; […]): 76* percent
Aff A*24:02 (ED50) (HLA-A*24:02 [14]): 0.3 µM

TLQSLGAEI [Rv0288_24–32wt]
Bind A*02:01 (HLA-A*02:01 [16]; wild-type epitopes marked *): 46* percent
Aff A*02:01 (ED50) (HLA-A*02:01 [17]; wild-type epitopes marked *): 3e-06 M
O-rate A*24:02 (t1/2) (HLA-A*24:02 [11]; wild-type epitopes marked *): 39.8 h
Bind A*24:02 (HLA-A*24:02 [12]; wild-type epitopes marked *): 16* percent
O-rate A*02:01 (t1/2) (HLA-A*02:01 [18]; wild-type epitopes marked *): 1.7 h
Aff A*24:02 (ED50) (HLA-A*24:02 [14]; wild-type epitopes marked *): 0.09 µM

SQIMYNYPA [Rv0288_2–10wt]
Bind A*30:02 (HLA-A*30:02 [10]; […]): 46** percent
Bind A*02:01 (HLA-A*02:01 [16]; […]): 78* percent
Aff A*02:01 (ED50) (HLA-A*02:01 [17]): 4E-07* M
O-rate A*30:02 (t1/2) (HLA-A*30:02 [13]): 0.3 h
O-rate A*02:01 (t1/2) (HLA-A*02:01 [18]): 4.9* h
Aff A*30:02 (ED50) (HLA-A*30:02 [15]): 2 µM
